Data reported in patent US8466195B2, “Methods and compositions for treating complications of diabetes and vascular diseases using flavones” (Salk Institute for Biological Studies, priority 2009, dated 2013).
Entries after “also recorded” stand apart in the source; their conditions may differ.

How the values were obtained:
[1] = biological target: BSA (Bos taurus, UniProt P02769); assay: Glycation of BSA by glucose (anti-CML Western blot and fluorescence assay); assay type: biochemical; conditions: 100 mM glucose, 14 days 37° C., 100 μM fisetin; Western blotting with a-CML and fluorescence assay
BSA, sequence (P02769 25-607): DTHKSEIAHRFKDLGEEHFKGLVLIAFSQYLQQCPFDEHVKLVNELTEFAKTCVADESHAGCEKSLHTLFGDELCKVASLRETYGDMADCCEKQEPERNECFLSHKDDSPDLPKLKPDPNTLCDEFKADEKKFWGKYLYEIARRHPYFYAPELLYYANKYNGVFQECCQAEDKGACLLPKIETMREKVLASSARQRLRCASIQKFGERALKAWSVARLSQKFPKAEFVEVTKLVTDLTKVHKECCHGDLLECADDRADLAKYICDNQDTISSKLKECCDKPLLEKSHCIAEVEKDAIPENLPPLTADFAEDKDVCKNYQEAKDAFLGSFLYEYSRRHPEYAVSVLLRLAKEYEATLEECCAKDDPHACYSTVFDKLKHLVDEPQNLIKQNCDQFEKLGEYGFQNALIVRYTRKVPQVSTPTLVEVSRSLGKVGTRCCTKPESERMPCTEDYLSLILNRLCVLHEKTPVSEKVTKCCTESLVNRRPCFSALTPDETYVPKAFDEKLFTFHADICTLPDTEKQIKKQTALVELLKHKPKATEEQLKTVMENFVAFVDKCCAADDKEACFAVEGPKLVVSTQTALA
Description: In reference to FIG. 1, BSA was incubated with either 100 mM glucose (G) or 100 mM methylglyoxal (MG) for 14 days at 37° C. plus or minus 100 μM fisetin. The BSA was dialyzed vs. PBS run on SDS-PAGE and blotted with anti-carboxymethyl lysine (CML) (a glucose AGE) or anti-MG adducts from Dr. Brownlee. […] In FIG. 1, panel B, anti-MG only reacts with MG treated BSA and also causes protein polymerization. In FIG. 1, panel C, co-incubation with fisetin results in inhibition of glucose glycation in 2 assays, Western blotting with a-CML (BL, hatched bars) and a fluorescence assay for protein glycation (FL, clear bars). In FIG. 1, panel D, fisetin inhibited protein glycation caused by high glucose exposure of human brain microvascular cells. Cells were exposed to either 5 mM (−Glu) or 25 mM (+Glu) glucose for 5 days plus (F) or minus (C) 1 μM fisetin. Cells were then harvested and blotted with either anti-CML or MG antisera.

[2] = system: HT-22 nerve cells; assay: HT-22 nerve cells exposed to glutamate: MG adducts and viability; assay type: cell-based; conditions: 5 mM glutamate, 2 μM fisetin
Description: HT-22 nerve cells were exposed to 0.5 mM glutamate and Glo-1 expression monitored at 8 and 24 hrs. In panel (B) of FIG. 2, Fisetin is shown to prevent both cell death and protein glycation. HT-22 cells were exposed to 5 mM glutamate in the presence or absence of 2 μM fisetin. MG adducts were determined by Western blotting 8 hrs after glutamate exposure and viability after 24 hrs. Actin is at the bottom of the blot. In panel (C) of FIG. 2, the Glo-1 inhibitor s-p-bromobenzylglutathione […] is shown to potentiate cell death. HT-22 cells were exposed to 1 mM glutamate plus or minus 10 or 20 μM BBGD.

[3] = system: HT22 cells; assay: GSH level in HT22 cells; assay type: cell-based; conditions: 10 μM fisetin, absence or presence of 5 mM glutamate, 24 hr
Description: As shown in panel (A) of FIG. 3, HT22 cells were untreated (ct) or treated with 10 μM fisetin (fis) in the absence of presence of 5 mM glutamate for 24 hr and GSH was measured enzymatically and normalized to protein. As shown in panel (B) of FIG. 3, HT22 cells in 96-well plates were treated with 5 mM glutamate and the indicated concentrations of fisetin. MTT reduction was measured after 24 hr.

[4] = system: STZ-diabetic rats; assay: Indices of nerve function in STZ-diabetic rats; assay type: in vivo, Sprague-Dawley rats; conditions: 25 mg/kg/day fisetin for 8 weeks
Description: Adult female Sprague-Dawley rats were made diabetic with STZ and treated with vehicle or 25 mg/kg/day fisetin for 8 weeks. Large fiber function was tested by measuring nerve conduction velocity and paw withdrawal to touch and small fiber function by paw withdrawal to noxious heat. […] Data are mean±SEM of N=4-8/group.

[5] = system: STZ-diabetic rats; assay: Kidney function (urine albumin/creatinine ratio) in STZ-diabetic rats; assay type: in vivo, Sprague-Dawley rats; conditions: 25 mg/kg/day fisetin; 6 and 8 weeks after induction of diabetes
Description: Urine albumin concentration was determined by competitive enzyme-linked immunoadsorbent assay using an Albuwell M kit (Exocell, Philadelphia, Pa.). Urine creatinine concentration was determined by Jaffe's reaction of alkaline picrate with creatinine using a Creatinine Companion kit (Exocell). Results are expressed as the urine albumin-to-creatinine ratio (micrograms per milligram).
Adult female Sprague-Dawley rats were made diabetic with STZ and treated with vehicle or 25 mg/kg/day fisetin. Kidney function was assessed by measuring the albumin/creatinine ratio in the urine at 6 and 8 weeks following induction of diabetes. Fisetin reduced diabetes-induced proteinuria. Data are mean±SEM of N=7-8/group.

[6] = system: Akita mice; assay: Kidney hypertrophy (kidney weight) in Akita mice; assay type: in vivo; conditions: fisetin 0.05% in diet for 18 weeks
Description: Male Akita mice were fed control diet or fisetin (0.05%) for 18 weeks beginning at 6 weeks of age. Kidney hypertrophy was assessed by weighing the kidneys. Kidney function was assessed by measuring the albumin/creatinine ratio in the urine. Fisetin reduced diabetes-induced renal hypertrophy and proteinuria. All data are mean±SD of N=5-7/group.

[7] = system: Akita mice; assay: Thermal latency response of hind paw in Akita mice; assay type: in vivo; conditions: fisetin 0.05% in diet for 18 weeks
Description: Mice were placed in an observation chamber on the surface (floor temperature 30° C.) of a modified Hargreaves apparatus (UARD, San Diego, Calif.) and allowed to acclimate for 5 min. For measurement of thermal response latency, a heat source that warmed the chamber surface at approximately 1° C./sec was moved underneath the hind paw and the time to foot withdrawal recorded automatically. The procedure was repeated 4 times on the same paw at 5 min intervals and the median of values 2-4 used to represent the thermal response latency.
Male Akita mice were fed control diet or fisetin (0.05%) for 18 weeks beginning at 6 weeks of age. Large fiber function was tested by measuring motor nerve conduction velocity and small fiber function by paw withdrawal to noxious heat. Diabetes-induced MNCV slowing and thermal hypoalgesia were ameliorated by fisetin treatment. All data are mean±SD of N=5-7/group. […] P<0.05.

[8] = system: Akita mice; assay: Open field test in Akita mice; assay type: in vivo; conditions: fisetin 0.05% in diet for 18 weeks
Description: The open field test was performed using MED Associates hardware and the Activity Monitor software according to the manufacturer's instructions (MED Associates Inc, St. Albans, Vt., USA). The open-field activity monitoring system contains a subject containment environment (chamber), infrared (I/R) sources and sensors. To perform the test, each mouse was placed in the testing chamber and the activity tracked by the Activity Monitor software for 30 min. The scanning was done every 50 ms. The behavioral parameters derived from the open field test included the following: distance traveled, ambulatory time and counts, stereotypic counts and time, resting time, vertical counts and time, jumping counts and time, average velocity, and ambulatory episodes.
Male Akita mice were fed control diet or fisetin (0.05%) for 18 weeks beginning at 6 weeks of age. Locomotor activity was measured in the open field test. Decreased locomotor activity is an indicator of elevated anxiety which is characteristic of diabetics in poor glycemic control. […] All data are mean±SD of N=5-7/group.

[9] = system: peripheral and CNS immune cells; conditions: peripheral [17] and CNS [8] immune cells; cited from earlier work

O=c1c(O)c(-c2ccc(O)c(O)c2)oc2cc(O)ccc12 [fisetin, 2-(3,4-dihydroxyphenyl)-3,7-dihydroxychromen-4-one]
glucose glycation of BSA [1]: inhibition
protein glycation (MG adducts) ([2]; Western blotting 8 hrs after glutamate): prevent
cell death ([2]; viability after 24 hrs): prevent
GSH [3]: Upregulation
diabetes-induced SNCV slowing [4]: ameliorated
severity of diabetes [4]: did not alter
tactile allodynia (paw withdrawal to touch) [4]: ameliorated
thermal hyperalgesia (paw withdrawal to noxious heat) [4]: ameliorated
diabetes-induced proteinuria (urine albumin/creatinine ratio) [5]: reduced
diabetes-induced renal hypertrophy (kidney weight) [6]: greatly reduced
diabetes-induced renal hypertrophy (kidney weight) ([6]; listed as Fisetin): reduced
thermal hypoalgesia (hind paw thermal latency) [7]: ameliorated; also recorded: prevented
locomotor activity in the open field test (distance traveled, ambulatory episodes) [8]: restored to near normal values
locomotor activity in the open field test (distance traveled, ambulatory episodes) ([8]; listed as Fisetin): restored locomotor activity to nearly control levels
anti-inflammatory activity [9]: anti-inflammatory activity
